# According to the METLIN SMRT retention time set (Domingo-Almenara et al. 2019):
# Experiment: gradient 5% acetonitrile 3 min, to 50% in 2 min, to 85% in 15 min, held 3 min, 100 µL/min
# Details: column: Zorbax Extend-C18 2.1 x 50 mm; eluents: water / acetonitrile, 0.1% formic acid
# Outline: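 Standards, all pure, were combined into mixtures of ~100 molecules and run at 100 μL/min on a Zorbax Extend-C18 column (2.1 × 50 mm, 1.8 μm) with water and acetonitrile, each containing 0.1% formic acid. A coupled quadrupole time-of-flight mass spectrometer operated in positive and negative ionization mode. Retention time values come from computationally picked adduct peaks, each inspected manually.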
row,Structure (SMILES),RP-LC retention time [s]
1,O=C([C@@H]1C[C@H](F)CN1S(=O)(=O)c1cc(F)cc(F)c1)N1CCCCC1,837
2,CCN(CCCNC(=O)c1sc2ncccc2c1-n1cccc1)c1ccccc1,709
3,Cc1oc(-c2[nH]ncc2C(=O)N2CCCC2)cc1S(=O)(=O)Nc1cc(F)ccc1F,699
4,CCc1cc(-c2csc(S(=O)(=O)NCc3ccc(OC(C)C)cc3)c2)on1,1070
5,COCC(=O)N(CC(=O)N1CCc2sccc2C1COc1cccc(OC)c1)C1CC1 (stereo not drawn),800
6,COCCCNC(=O)N1CCCCCC1c1ccccc1Cl (stereo not drawn),933
7,CCOC(=O)c1cc(OCC)c2c(ccc3ccccc32)n1,1080
8,Cc1ccc(CNC(=O)c2c(C)sc3ccn(Cc4ccc(F)cc4)c(=O)c23)o1,980
9,C/C(=N\O)C1CC(CC(=O)O)C1(C)C (stereo not drawn),688
10,CCN1CCCC1CNC(=O)Cn1ncn2nc(-c3ccccc3)cc2c1=O (stereo not drawn),604
11,Cc1cccc(NC(=O)Cn2c(=O)nc(N3CCC(C)CC3)c3ccccc32)c1C,909
12,CC1CCN(c2cc(-n3cnc(C(=O)Nc4ccc5c(c4)OCCO5)c3)ncn2)CC1,1030
13,Cc1nc(NC(=O)C2COCC(=O)N2Cc2ccccc2)sc1C(=O)N(C)C (stereo not drawn),615
14,CCCN1C(=O)COc2ccc(-c3noc(-c4cccc(OC)c4OC)n3)cc21,1160
15,CCCc1ccc(S(=O)(=O)N2CCC(F)(c3nc(CC(C)C)no3)CC2)cc1,1330
16,Cc1cc(C)cc(NC(=O)NCC2(N3CCOCC3)CCOC2)c1 (stereo not drawn),617
17,O=C(CCc1conc1-c1ccccc1)N1CCN(C2CCCCC2)CC1,630
18,Cc1ccc(C)c(-c2cc3c(=O)n(Cc4nc(-c5ccc(Br)cc5)no4)ncn3n2)c1,1320
19,O=C(NCCC1=CCCCC1)c1ccc(-c2nccnc2N2CCCC2)cc1,1030
20,CCOc1ccc(-c2noc(Cn3nc(-c4cccc(OC)c4)ccc3=O)n2)cc1,1070
21,O=C(Nc1cccc(Cl)c1F)c1cnc(-c2ccc(F)cc2)nc1-c1ccncc1,972
22,CCCCN1C(=O)C(C)(C(=O)N2CCN(c3ccccc3F)CC2)Oc2cccnc21 (stereo not drawn),1190

row,Structure (SMILES),RP-LC retention time [s]
1,COc1ccc(N2CCN(C(=O)CN3C(=O)NC(c4ccc(Cl)cc4)C4=C3COC4=O)CC2)cc1 (stereo not drawn),752
2,COc1ccc(-c2cn3cccnc3n2)cc1NC(=O)c1cc(Br)ccc1Cl,768
3,Cc1cc2nc(C(=O)Nc3cccc(C)c3C)cc(C)n2n1,1020
4,Cc1[nH]c(C(=O)N2CCCC(C(=O)NCCN3CCCCCC3)C2)c(C)c1C(=O)OC(C)C (stereo not drawn),654
5,O=C(Cn1c(=O)n(Cc2ccc3c(c2)OCO3)c(=O)c2ncccc21)N1CCCc2ccccc21,826
6,Cc1ccc(-c2nc(CN3CCSCC3)c(C)o2)cc1,680
7,O=C1CCSc2ccc(S(=O)(=O)N3CCN(c4ccccn4)CC3)cc2N1,612
8,COc1ccc(OC)c(NC(=O)C2C(=O)NC3(C)CC2c2ccccc2O3)c1 (stereo not drawn),875
9,CCCN(C)c1nccnc1OC1CCN(C(=O)C(CC)CC)C1 (stereo not drawn),842
10,Cc1ccsc1C(=O)N1CCOc2ccc(N3CCOCC3)cc2C1,762
11,CCNC(=O)C1CCN(Cc2cc3ccccc3n2Cc2ccc(C)cc2)CC1,724
12,Cc1nc(C)c(C(=O)NCc2c(-c3ccccc3)nc3sc(C)nn23)s1,737
13,COCCn1cc2c3c(cccc31)CN(C(=O)Nc1cc(F)ccc1F)CC2,938
14,O=C(NCCSc1ncc(-c2ccc(F)cc2)[nH]1)c1cccs1,584
15,COc1ccc(-n2nc3c(N4CCCC(C(=O)NCc5cccs5)C4)nnc(C)c3c2C)cc1 (stereo not drawn),724
16,COc1ccc(N2CCN(c3ncc(C(=O)O)c(C(C)C)n3)CC2)cc1,865
17,COC(=O)c1c(C)[nH]c(C(=O)N2CCCC(C(=O)NCc3ccccc3)C2)c1C (stereo not drawn),732
18,CC1CCC[C@H](O)CCCCCc2cc(O)cc(O)c2C(=O)O1 (stereo partly drawn),862
19,CN(C)CC1CN(C(=O)COc2ccccc2)CC12CCOCC2 (stereo not drawn),599
20,Cc1ccc(NC(=O)Cn2c(=O)c(CCC(=O)NC3CCCC3)nc3ccccc32)c(C)c1,841
21,COc1cccc(S(=O)(=O)N2CCN(c3cnn4c(C)nnc4c3)CC2)c1,671
22,CCN(CC)CCNc1c(C)cc(CO)c(Cl)c1C,640

row,Structure (SMILES),RP-LC retention time [s]
1,COCCN1C(=O)CCc2cc(NS(=O)(=O)c3ccccc3Cl)ccc21,771
2,CC1CCCCN1CCCNC(=O)CN1C(=O)CSc2cccn2-c2ccccc21 (stereo not drawn),651
3,COc1ccc(-c2nc3cccc(C)n3c2Nc2ccccc2C)cc1,773
4,COC(=O)c1cc(S(=O)(=O)N2CCCC2C(=O)Nc2ccccc2F)cn1C (stereo not drawn),844
5,O=C(c1ccsc1)N1CCN(c2nc(CN3CCCCC3)cs2)CC1,597
6,CCC(=O)NCc1nc2c(n1C)CN(S(=O)(=O)c1c(C)c(C)cc(C)c1C)CC2,556
7,COCCCNC(=O)CCc1nnc2ccc(-c3ccc(C)c(C)c3)nn12,718
8,Cc1ccc(Nc2nc(-c3ccc(F)cc3F)cs2)nc1,1070
9,CCOC(=O)CNC(=O)NCCn1c(C(F)(F)F)nc2ccccc21,686
10,Cn1cc(-c2ccncc2)cc1C(=O)NCc1ccccc1Cl,646
11,CCC(=O)Nc1nc(-c2ccc(C(C)C)cc2)cs1,1000
12,O=C(NCc1nnnn1C1CCCCC1)c1ccccc1C(F)(F)F,782
13,COC(=O)c1cccc(-c2nc(-c3cn(Cc4ccccc4)nn3)no2)c1,964
14,Cc1ccccc1NC(=O)C1CCCN(c2ccc3cc(S(=O)(=O)N4CCCCC4)ccc3n2)C1 (stereo not drawn),835
15,COc1ccccc1NC(=O)CSCC(=O)N1CCC(C(N)=O)CC1,619
16,CCC1Oc2ccc(S(=O)(=O)N3CCC(C(=O)Nc4ccc(F)c(Cl)c4)CC3)cc2NC1=O (stereo not drawn),969
17,O=C(Cn1nc(N2CCCCCC2)c2ccccc2c1=O)Nc1ccc(F)c(F)c1,1150
18,CCc1nc(NC(=O)C2CC(=O)N(c3n[nH]c4cccc(F)c34)C2)sc1C (stereo not drawn),740
19,O=c1n(Cc2cccc(F)c2)nc2ccc(S(=O)(=O)N3CCCCC3)cn12,952
20,O=C(CCn1cnc2cc(-c3noc(-c4ccc(F)c(F)c4)n3)ccc21)N1CCOCC1,740
21,CCCCNC(=O)C1CCC(=O)N(c2ccc(OC)cc2)C1c1ccc(F)cc1 (stereo not drawn),757
22,Cc1ccc2c(c1)N(CCCC(=O)NCCCN1CC(C)CC(C)C1)C(=O)CO2 (stereo not drawn),674

row,Structure (SMILES),RP-LC retention time [s]
1,CCN1CCCC1CNC(=O)c1nc(CCS(=O)(=O)c2ccc(OC)cc2)no1 (stereo not drawn),622
2,O=C(NCc1ccc(F)cc1)c1ccc2c(c1)CCN2C(=O)C1CC1,813
3,CC(C)(C)c1csc(-c2csc(S(=O)(=O)Nc3ccc(F)cc3)c2)n1,1220
4,Cc1ccc(CNC(=O)C2CCN(c3cnn(C)c(=O)c3)C2)o1 (stereo not drawn),641
5,COC(=O)C1=C(C)NC(C)=C(C(=O)OC(C)(C)CN(C)CCC(c2ccccc2)c2ccccc2)C1c1cccc([N+](=O)[O-])c1 (stereo not drawn),1010
6,CCOC(=O)c1cccc(NC(=O)Cn2c(=O)c(CCC(=O)NC3CCCC3)nc3ccccc32)c1,876
7,O=C(Cc1ccccc1F)NCC(=O)Nc1nc2ccccc2[nH]1,632
8,O=S(=O)(Cc1ccccc1Cl)N(CCc1cccs1)Cc1ccco1,1080
9,CCN(CC)c1ccc(CNC(=O)C2CCc3nc(N4CCOCC4)ncc3C2)cc1 (stereo not drawn),588
10,Cc1ccc(-c2nnc(-c3nc(NCc4cccnc4)c4ccccc4n3)o2)cc1,676
11,COc1cc(N2CC(CNS(C)(=O)=O)OC2=O)cc(OC)c1OC (stereo not drawn),593
12,CCc1ccccc1NC(=O)Cn1c(C(C)C)nc2c(c1=O)CCN(Cc1ccccc1)C2,699
13,Cc1ccc(CNC(=O)C2(C)Cn3nc(C(=O)NCc4ccc(F)cc4)cc3C(=O)N2C)cc1 (stereo not drawn),783
14,C[C@@H](c1ncncc1F)[C@@](O)(Cn1cncn1)c1ccc(F)cc1F,870
15,O=C(NCc1ccccc1)N1CC(Oc2ccc(-c3nc(-c4ccccc4)no3)cc2)C1,1130
16,CC1=C(c2ccc(F)cc2)S(=O)(=O)N=C1N1CCCN(C(=O)c2ccccn2)CC1,713
17,Cc1cc(=O)n2c(-c3ccc(NC(=O)Nc4ccc(F)c(F)c4)cc3)csc2n1,776
18,COC(=O)COc1cc(-c2ccccc2)nc2ccc(NS(=O)(=O)c3ccccc3)cc12,774
19,CCn1cc(C)c(C(=O)O)c1CC(=O)NCc1ccc(SC)cc1,758
20,CCOC(=O)c1cc2n(n1)CC(C)(C(=O)NC1CCCC1)N(c1cccc(F)c1)C2=O (stereo not drawn),862
21,COc1ccc(-c2c(C(=O)Nc3ccc(OC)cc3OC)nc3ccccn23)cc1,650
22,CC(C)NC(=O)C1CCN(Cc2cc3ccccc3n2Cc2ccccc2)CC1,710
